The supplement of paper PMC10307832

Tests used:
Assay in all cases: relative viability (nuclei count vs DMSO), 5 days (fraction); higher = more cells survive
[1] = compound: O=C(CCCCCCNC(=O)c1cnc(N(c2ccccc2)c2ccccc2)nc1)NO [Ricolinostat] + CC1(C)CCC(c2ccc(Cl)cc2)=C(CN2CCN(c3ccc(C(=O)NS(=O)(=O)c4ccc(N[C@H](CCN5CCOCC5)CSc5ccccc5)c(S(=O)(=O)C(F)(F)F)c4)cc3)CC2)C1 [Navitoclax] (partner 0.5 µM)
How it was run: (§1)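 For relative viability, nuclei counts in treated wells were divided by those in vehicle wells. Lung cancer cell lines had been pin-tool dosed in 1536-well plates the day after seeding and cultured for 5 days, then fixed and stained in one step (final 0.05% Triton X-100, 1% formaldehyde, 1 ug/ml Hoechst) and imaged at 4×. Doses were one drug alone or a fixed anchor-drug dose plus five library-drug doses (not always all listed) in √10 steps, and values are duplicate-plate medians.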

[2] = compound: C1=CC=C(C(=C1)C2=CC=C(C=C2)C3=CSC4=C3C(=C(C(=O)N4)C#N)O)O + COc1cccc2cc(-c3nc([C@H]4CC[C@H](C(=O)O)CC4)n4ncnc(N)c34)[nH]c12 [OSI-027] (partner 0.5 µM)
How it was run: as §1

[3] = compound: CC1=CN2C(=O)C=C(N=C2C(=C1)C(C)NC3=CC=CC=C3)N4CCOCC4 [TGX 221] + Nc1nc2[nH]cc(CCc3ccc(C(=O)N[C@@H](CCC(=O)O)C(=O)O)cc3)c2c(=O)[nH]1 [Pemetrexed] (partner 0.2 µM)
How it was run: as §1

[4] = compound: CC1=CN2C(=O)C=C(N=C2C(=C1)C(C)NC3=CC=CC=C3)N4CCOCC4 [TGX 221] + CC(C)C[C@H](NC(=O)[C@H](Cc1ccccc1)NC(=O)c1cnccn1)B(O)O [Bortezomib] (partner 0.002 µM)
How it was run: as §1

NCI-H1792
relative viability ([1]; first compound 0.08 µM): 0.438 | relative viability ([1]; first compound 0.253 µM): 0.632 | relative viability ([1]; first compound 0.8 µM): 0.518 | relative viability ([1]; first compound 2.53 µM): 0.654 | relative viability ([2]; first compound 0.253 µM): 0.688 | relative viability ([2]; first compound 2.53 µM): 0.667 | relative viability ([2]; first compound 8 µM): 0.477 | relative viability ([3]; first compound 0.08 µM): 0.795 | relative viability ([3]; first compound 0.253 µM): 0.695 | relative viability ([3]; first compound 0.8 µM): 0.557 | relative viability ([3]; first compound 2.53 µM): 0.549 | relative viability ([3]; first compound 8 µM): 0.802 | relative viability ([4]; first compound 0.08 µM): 0.89 | relative viability ([4]; first compound 0.253 µM): 0.922 | relative viability ([4]; first compound 0.8 µM): 0.944 | relative viability ([4]; first compound 2.53 µM): 0.904 | relative viability ([4]; first compound 8 µM): 0.838
